The source of these data is ChEMBL document CHEMBL4138174, “Design and synthesis of novel C14-urea-tetrandrine derivatives with potent anti-cancer activity” (Eur J Med Chem, 2018).

Common to all, as to assay type: functional, cell-based
The test system of one assay is HEL. Kind of assay: Cytotoxicity against human HEL cells assessed as reduction in cell viability after 48 hrs by MTT assay. In general terms: Formazan colour is commonly taken as a measure of viable cells.
Another assay concerns MDA-MB-231. Briefly: Cytotoxicity against human MDA-MB-231 cells assessed as reduction in cell viability after 48 hrs by MTT assay.
In a further assay the test system is PC-3. Briefly: Cytotoxicity against human PC3 cells assessed as reduction in cell viability after 48 hrs by MTT assay.
Assay [1] can be described thus: Cytotoxicity against human WM9 cells assessed as reduction in cell viability after 48 hrs by MTT assay.
The subject of a further assay is K562. Briefly: Cytotoxicity against human K562 cells assessed as reduction in cell viability after 48 hrs by MTT assay.

pIC50: −log10 of the molar value.

As for `COc1ccc(NC(=O)Nc2cc(OC)c3cc2C[C@H]2c4c(cc(OC)c(OC)c4Oc4cc5c(cc4OC)CCN(C)[C@H]5Cc4ccc(cc4)O3)CCN2C)cc1`, the pIC50 is 5.18 in the assay with HEL (Homo sapiens, HEL, 48 h); 4.99 with MDA-MB-231 (Homo sapiens, MDA-MB-231, 48 h); 5.33 in the assay with PC-3 (Homo sapiens, PC-3, 48 h); 5.30 in assay [1] (Homo sapiens, WM9, 48 h); 5.49 with K562 (Homo sapiens, K562, 48 h).
`COc1ccc(NC(=S)Nc2cc(OC)c3cc2C[C@H]2c4c(cc(OC)c(OC)c4Oc4cc5c(cc4OC)CCN(C)[C@H]5Cc4ccc(cc4)O3)CCN2C)cc1`: the pIC50 is 5.13 in the assay on HEL (Homo sapiens, HEL, 48 h); 5.13 with MDA-MB-231 (Homo sapiens, MDA-MB-231, 48 h); 5.28 with PC-3 (Homo sapiens, PC-3, 48 h); 5.27 in assay [1] (Homo sapiens, WM9, 48 h); 5.57 in the assay on K562 (Homo sapiens, K562, 48 h).
`CNC(=O)Nc1cc(OC)c2cc1C[C@H]1c3c(cc(OC)c(OC)c3Oc3cc4c(cc3OC)CCN(C)[C@H]4Cc3ccc(cc3)O2)CCN1C`: the pIC50 in the assay with HEL (Homo sapiens, HEL, 48 h) was 5.03; with MDA-MB-231 (Homo sapiens, MDA-MB-231, 48 h) it was 4.84; in the assay with PC-3 (Homo sapiens, PC-3, 48 h), 5.77; in assay [1] (Homo sapiens, WM9, 48 h), 5.51; with K562 (Homo sapiens, K562, 48 h), 5.04.
Turning to `COc1cc(NC(=O)Nc2ccc(F)cc2)c2cc1Oc1ccc(cc1)C[C@H]1c3cc(c(OC)cc3CCN1C)Oc1c(OC)c(OC)cc3c1[C@H](C2)N(C)CC3` [listing 1 of 2 here], the pIC50 with HEL (Homo sapiens, HEL, 48 h) was 5.35; with MDA-MB-231 (Homo sapiens, MDA-MB-231, 48 h), 5.30; in the assay with PC-3 (pc-3) it was 5.68; in assay [1] (Homo sapiens, WM9, 48 h), 5.38; with K562 (Homo sapiens, K562, 48 h), 5.74.
As to `COc1cc(NC(=O)Nc2ccc(F)cc2)c2cc1Oc1ccc(cc1)C[C@H]1c3cc(c(OC)cc3CCN1C)Oc1c(OC)c(OC)cc3c1[C@H](C2)N(C)CC3` [listing 2 of 2 here], the pIC50 was 5.59 in the assay with HEL (hel); 5.51 in the assay with MDA-MB-231 (mda-mb-231); 6.11 in the assay on PC-3 (pc-3); 5.46 in assay [1]; 6.03 with K562 (k562).
On the same counts, the results for `CCCCNC(=O)Nc1cc(OC)c2cc1C[C@H]1c3c(cc(OC)c(OC)c3Oc3cc4c(cc3OC)CCN(C)[C@H]4Cc3ccc(cc3)O2)CCN1C` are 5.57, 5.28, 6.17, 5.44 and 5.56.
As for `COc1cc(NC(=O)N2CCOCC2)c2cc1Oc1ccc(cc1)C[C@H]1c3cc(c(OC)cc3CCN1C)Oc1c(OC)c(OC)cc3c1[C@H](C2)N(C)CC3`, the pIC50 with HEL (Homo sapiens, HEL, 48 h) is 5.33; with MDA-MB-231 (Homo sapiens, MDA-MB-231, 48 h) it was 5.14; in the assay with PC-3 (Homo sapiens, PC-3, 48 h), 5.42; in assay [1] (Homo sapiens, WM9, 48 h), 5.26; in the assay on K562 (Homo sapiens, K562, 48 h), 5.36.
The like results for `COc1cc(NC(=O)NCCc2ccccc2)c2cc1Oc1ccc(cc1)C[C@H]1c3cc(c(OC)cc3CCN1C)Oc1c(OC)c(OC)cc3c1[C@H](C2)N(C)CC3` were, in that order, 5.05, 5.01, 5.23, 5.11 and 5.31.
On the same counts, the results for `O=c1[nH]cc(F)c(=O)[nH]1` [FLUOROURACIL] are 4.80, 4.75, 4.70, 4.80 and 5.02.
On the same counts, the results for `CCNC(=O)Nc1cc(OC)c2cc1C[C@H]1c3c(cc(OC)c(OC)c3Oc3cc4c(cc3OC)CCN(C)[C@H]4Cc3ccc(cc3)O2)CCN1C` are 5.40, 5.23, 6.01, 5.64 and 5.49.
With `COc1cc(NC(=O)Nc2ccc(Cl)c(C(F)(F)F)c2)c2cc1Oc1ccc(cc1)C[C@H]1c3cc(c(OC)cc3CCN1C)Oc1c(OC)c(OC)cc3c1[C@H](C2)N(C)CC3`, the pIC50 was 5.27 in the assay on HEL (Homo sapiens, HEL, 48 h); 4.99 in the assay with MDA-MB-231 (Homo sapiens, MDA-MB-231, 48 h); 5.33 in the assay with PC-3 (Homo sapiens, PC-3, 48 h); 5.51 in assay [1] (Homo sapiens, WM9, 48 h); 5.69 in the assay with K562 (Homo sapiens, K562, 48 h).
The like results for `COc1cc(NC(=S)Nc2ccc(Cl)cc2)c2cc1Oc1ccc(cc1)C[C@H]1c3cc(c(OC)cc3CCN1C)Oc1c(OC)c(OC)cc3c1[C@H](C2)N(C)CC3` were, in that order, 5.14, 5.36, 5.22, 5.16 and 5.61.
The like results for `COc1cc(NC(=S)Nc2ccc(C)cc2)c2cc1Oc1ccc(cc1)C[C@H]1c3cc(c(OC)cc3CCN1C)Oc1c(OC)c(OC)cc3c1[C@H](C2)N(C)CC3` were, in that order, 5.22, 5.44, 5.27, 5.26 and 5.65.
On the same counts, the results for `COc1cc(NC(=O)Nc2cccc(C)c2)c2cc1Oc1ccc(cc1)C[C@H]1c3cc(c(OC)cc3CCN1C)Oc1c(OC)c(OC)cc3c1[C@H](C2)N(C)CC3` are 5.31, 4.98, 5.50, 5.29 and 5.67.
Regarding `COc1cc(NC(=O)Nc2ccc([N+](=O)[O-])cc2)c2cc1Oc1ccc(cc1)C[C@H]1c3cc(c(OC)cc3CCN1C)Oc1c(OC)c(OC)cc3c1[C@H](C2)N(C)CC3`, the pIC50 with HEL (Homo sapiens, HEL, 48 h) is 5.18; in the assay with MDA-MB-231 (Homo sapiens, MDA-MB-231, 48 h), 5.29; in the assay with PC-3 (Homo sapiens, PC-3, 48 h) it was 5.16; in assay [1] (Homo sapiens, WM9, 48 h) it was 5.33; with K562 (Homo sapiens, K562, 48 h) it was 5.74.
The like results for `COc1cc(NC(=O)Nc2ccc(C)cc2)c2cc1Oc1ccc(cc1)C[C@H]1c3cc(c(OC)cc3CCN1C)Oc1c(OC)c(OC)cc3c1[C@H](C2)N(C)CC3` were, in that order, 5.09, 5.14, 5.41, 5.29 and 5.54.
On the same counts, the results for `CNC(=S)Nc1cc(OC)c2cc1C[C@H]1c3c(cc(OC)c(OC)c3Oc3cc4c(cc3OC)CCN(C)[C@H]4Cc3ccc(cc3)O2)CCN1C` are 5.04, 4.87, 5.19, 5.13 and 5.13.
On the same counts, the results for `COc1cc(NC(=O)Nc2ccc(C(F)(F)F)cc2)c2cc1Oc1ccc(cc1)C[C@H]1c3cc(c(OC)cc3CCN1C)Oc1c(OC)c(OC)cc3c1[C@H](C2)N(C)CC3` are 5.32, 5.27, 5.28, 5.38 and 5.76.
Take `COc1cc(NC(=O)Nc2cccc(Cl)c2)c2cc1Oc1ccc(cc1)C[C@H]1c3cc(c(OC)cc3CCN1C)Oc1c(OC)c(OC)cc3c1[C@H](C2)N(C)CC3`: the pIC50 in the assay on HEL (Homo sapiens, HEL, 48 h) was 5.19; with MDA-MB-231 (Homo sapiens, MDA-MB-231, 48 h), 5.04; with PC-3 (Homo sapiens, PC-3, 48 h), 5.34; in assay [1] (Homo sapiens, WM9, 48 h), 5.50; in the assay with K562 (Homo sapiens, K562, 48 h), 5.69.
For `COc1cc(NC(=S)Nc2ccc(F)cc2)c2cc1Oc1ccc(cc1)C[C@H]1c3cc(c(OC)cc3CCN1C)Oc1c(OC)c(OC)cc3c1[C@H](C2)N(C)CC3`, the pIC50 in the assay with HEL (hel) was 5.86; in the assay with MDA-MB-231 (mda-mb-231), 5.81; in the assay on PC-3 (pc-3), 6.48; in assay [1] it was 5.79; with K562 (k562), 6.06.
Regarding `COc1cc(NC(=O)NC2CCCCC2)c2cc1Oc1ccc(cc1)C[C@H]1c3cc(c(OC)cc3CCN1C)Oc1c(OC)c(OC)cc3c1[C@H](C2)N(C)CC3`, the pIC50 in the assay with HEL (Homo sapiens, HEL, 48 h) is 4.83; with MDA-MB-231 (Homo sapiens, MDA-MB-231, 48 h), 4.78; with PC-3 (Homo sapiens, PC-3, 48 h), 5.42; in assay [1] (Homo sapiens, WM9, 48 h) it was 4.98; in the assay on K562 (Homo sapiens, K562, 48 h), 5.25.
For `COc1ccc2cc1Oc1ccc(cc1)C[C@H]1c3cc(c(OC)cc3CCN1C)Oc1c(OC)c(OC)cc3c1[C@H](C2)N(C)CC3`, the pIC50 is 5.00 in the assay with HEL (hel); 4.87 with MDA-MB-231 (mda-mb-231); 5.35 in the assay with PC-3 (pc-3); 5.13 in assay [1]; 5.05 in the assay on K562 (k562).
`CCCNC(=O)Nc1cc(OC)c2cc1C[C@H]1c3c(cc(OC)c(OC)c3Oc3cc4c(cc3OC)CCN(C)[C@H]4Cc3ccc(cc3)O2)CCN1C`: the pIC50 in the assay on HEL (Homo sapiens, HEL, 48 h) was 5.32; in the assay with MDA-MB-231 (Homo sapiens, MDA-MB-231, 48 h), 5.20; in the assay with PC-3 (Homo sapiens, PC-3, 48 h) it was 6.14; in assay [1] (Homo sapiens, WM9, 48 h), 5.32; in the assay with K562 (Homo sapiens, K562, 48 h), 5.29.
Consider `COc1cc(NC(=O)NCCCl)c2cc1Oc1ccc(cc1)C[C@H]1c3cc(c(OC)cc3CCN1C)Oc1c(OC)c(OC)cc3c1[C@H](C2)N(C)CC3`, for which the pIC50 is 5.03 in the assay with HEL (Homo sapiens, HEL, 48 h); 4.88 in the assay with MDA-MB-231 (Homo sapiens, MDA-MB-231, 48 h); 5.31 with PC-3 (Homo sapiens, PC-3, 48 h); 5.38 in assay [1] (Homo sapiens, WM9, 48 h); 5.20 with K562 (Homo sapiens, K562, 48 h).
On to `COc1cc(NC(=O)NC2CCCC2)c2cc1Oc1ccc(cc1)C[C@H]1c3cc(c(OC)cc3CCN1C)Oc1c(OC)c(OC)cc3c1[C@H](C2)N(C)CC3`, for which the pIC50 is 4.94 in the assay with HEL (Homo sapiens, HEL, 48 h); 4.88 in the assay with MDA-MB-231 (Homo sapiens, MDA-MB-231, 48 h); 5.75 in the assay on PC-3 (Homo sapiens, PC-3, 48 h); 5.19 in assay [1] (Homo sapiens, WM9, 48 h); 5.19 with K562 (Homo sapiens, K562, 48 h).
`COc1cc(NC(=O)Nc2cccc3ccccc23)c2cc1Oc1ccc(cc1)C[C@H]1c3cc(c(OC)cc3CCN1C)Oc1c(OC)c(OC)cc3c1[C@H](C2)N(C)CC3`: the pIC50 is 5.28 in the assay with HEL (Homo sapiens, HEL, 48 h); 5.34 in the assay on MDA-MB-231 (Homo sapiens, MDA-MB-231, 48 h); 5.88 in the assay with PC-3 (Homo sapiens, PC-3, 48 h); 5.41 in assay [1] (Homo sapiens, WM9, 48 h); 5.71 in the assay with K562 (Homo sapiens, K562, 48 h).
For `CCCCNC(=S)Nc1cc(OC)c2cc1C[C@H]1c3c(cc(OC)c(OC)c3Oc3cc4c(cc3OC)CCN(C)[C@H]4Cc3ccc(cc3)O2)CCN1C`, the pIC50 in the assay with HEL (hel) is 5.71; in the assay with MDA-MB-231 (mda-mb-231), 5.49; in the assay on PC-3 (pc-3) it was 5.98; in assay [1] it was 5.55; in the assay with K562 (k562) it was 5.69.
Turning to `C=C(C)C(=O)OCCNC(=O)Nc1cc(OC)c2cc1C[C@H]1c3c(cc(OC)c(OC)c3Oc3cc4c(cc3OC)CCN(C)[C@H]4Cc3ccc(cc3)O2)CCN1C`, the pIC50 is 4.91 with HEL (Homo sapiens, HEL, 48 h); 4.80 in the assay with MDA-MB-231 (Homo sapiens, MDA-MB-231, 48 h); 5.11 in the assay on PC-3 (Homo sapiens, PC-3, 48 h); 5.74 in assay [1] (Homo sapiens, WM9, 48 h); 5.10 in the assay on K562 (Homo sapiens, K562, 48 h).

Broadly, the pIC50 is −log10 of the IC50, conventionally taken in molar units.
